The values that follow come from patent US11447466B2, “Substituted indole compounds useful as inhibitors of TLR7/8/9” (BRISTOL-MYERS SQUIBB COMPANY, priority 2017, dated 2022).

Usually IC50 stands for the concentration that inhibits the measured activity by half. Lower therefore signals higher potency.

Assay type in all cases: cell-based
One test has as its target T1, human TLR7 (Homo sapiens, UniProt Q9NYK1).
T1 construct: host or cells: HEK-Blue cells
T1 sequence (Q9NYK1 27-1049): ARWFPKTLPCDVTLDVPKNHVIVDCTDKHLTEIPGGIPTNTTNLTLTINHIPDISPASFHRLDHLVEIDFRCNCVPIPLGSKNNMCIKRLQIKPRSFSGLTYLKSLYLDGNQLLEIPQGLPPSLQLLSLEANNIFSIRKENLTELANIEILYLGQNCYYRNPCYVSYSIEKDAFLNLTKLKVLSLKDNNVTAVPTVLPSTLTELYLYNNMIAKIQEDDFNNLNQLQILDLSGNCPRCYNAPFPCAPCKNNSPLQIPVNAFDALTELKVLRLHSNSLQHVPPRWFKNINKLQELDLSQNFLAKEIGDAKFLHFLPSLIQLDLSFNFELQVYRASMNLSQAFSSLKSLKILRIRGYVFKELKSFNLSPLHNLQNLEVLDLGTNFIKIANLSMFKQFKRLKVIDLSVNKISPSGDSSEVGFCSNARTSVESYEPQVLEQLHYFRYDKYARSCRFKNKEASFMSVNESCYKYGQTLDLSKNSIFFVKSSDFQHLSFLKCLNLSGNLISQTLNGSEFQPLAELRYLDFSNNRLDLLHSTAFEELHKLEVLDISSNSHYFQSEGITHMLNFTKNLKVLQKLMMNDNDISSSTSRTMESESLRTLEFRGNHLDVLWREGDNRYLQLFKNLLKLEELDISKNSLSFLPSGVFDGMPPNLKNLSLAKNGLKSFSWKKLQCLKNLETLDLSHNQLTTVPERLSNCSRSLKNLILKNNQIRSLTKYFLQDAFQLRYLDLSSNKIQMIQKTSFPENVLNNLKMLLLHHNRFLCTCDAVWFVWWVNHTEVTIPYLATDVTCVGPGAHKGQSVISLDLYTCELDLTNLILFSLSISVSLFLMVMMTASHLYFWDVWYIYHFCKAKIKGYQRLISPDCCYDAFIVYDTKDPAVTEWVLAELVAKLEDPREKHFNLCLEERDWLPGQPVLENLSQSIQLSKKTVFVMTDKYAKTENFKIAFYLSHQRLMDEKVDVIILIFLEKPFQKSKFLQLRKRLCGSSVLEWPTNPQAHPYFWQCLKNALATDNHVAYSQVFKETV
Put plainly: TLR7 inhibition reporter assay (HEK-Blue SEAP reporter, gardiquimod stimulation). Particulars: HEK-Blue cells overexpressing human TLR7, SEAP reporter, gardiquimod 7.5 μM, 22 hour incubation. In a few lines:
(§1)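 Screening used HEK-Blue cells overexpressing one human TLR (7, 8 or 9) and an IFN-β minimal promoter–NF-κB/AP-1 SEAP construct. Stimulation lasted 22 h at 37 °C with receptor-specific agonist: gardiquimod, R848 or ODN2006 at 7.5 μM, 15.9 μM and 5 nM.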
In general terms: A reporter such as luciferase makes a cellular process visible.

A further test addresses T2, human TLR8 (Homo sapiens, UniProt Q9NR97).
T2 construct: host or cells: HEK-Blue cells
T2 sequence (Q9NR97 27-1041): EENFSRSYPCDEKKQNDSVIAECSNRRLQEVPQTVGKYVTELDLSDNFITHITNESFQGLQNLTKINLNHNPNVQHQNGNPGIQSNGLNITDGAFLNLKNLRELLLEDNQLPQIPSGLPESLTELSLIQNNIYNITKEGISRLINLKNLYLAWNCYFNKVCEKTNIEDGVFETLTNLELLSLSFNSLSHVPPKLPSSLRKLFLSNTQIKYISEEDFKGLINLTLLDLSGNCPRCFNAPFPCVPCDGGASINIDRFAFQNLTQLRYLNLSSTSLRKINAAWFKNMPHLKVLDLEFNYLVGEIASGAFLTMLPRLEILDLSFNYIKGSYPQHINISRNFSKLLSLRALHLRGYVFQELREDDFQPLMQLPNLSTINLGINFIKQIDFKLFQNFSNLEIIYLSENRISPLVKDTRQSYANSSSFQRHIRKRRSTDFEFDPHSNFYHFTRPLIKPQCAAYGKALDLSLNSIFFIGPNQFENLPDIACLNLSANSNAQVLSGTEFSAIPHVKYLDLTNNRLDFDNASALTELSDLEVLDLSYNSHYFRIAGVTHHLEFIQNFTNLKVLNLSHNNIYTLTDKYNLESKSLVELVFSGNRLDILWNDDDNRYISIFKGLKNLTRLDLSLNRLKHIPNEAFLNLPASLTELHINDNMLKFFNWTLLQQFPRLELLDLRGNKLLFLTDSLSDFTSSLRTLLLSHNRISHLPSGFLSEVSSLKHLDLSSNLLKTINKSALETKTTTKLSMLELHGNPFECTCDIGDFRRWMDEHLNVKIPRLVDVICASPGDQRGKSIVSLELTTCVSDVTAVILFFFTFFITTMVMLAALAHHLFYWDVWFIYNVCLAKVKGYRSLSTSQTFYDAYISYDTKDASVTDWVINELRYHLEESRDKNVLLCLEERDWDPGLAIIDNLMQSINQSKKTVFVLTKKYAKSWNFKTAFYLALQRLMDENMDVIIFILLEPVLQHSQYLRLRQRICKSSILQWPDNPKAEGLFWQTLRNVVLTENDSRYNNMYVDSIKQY
Put plainly: TLR8 inhibition reporter assay (HEK-Blue SEAP reporter, R848 stimulation). Particulars: HEK-Blue cells overexpressing human TLR8, SEAP reporter, R848 15.9 μM, 22 hour incubation. A digest of the protocol:
as §1

The target in another test is T3, human TLR9 (Homo sapiens, UniProt Q9NR96).
T3 construct: host or cells: HEK-Blue cells
T3 sequence (Q9NR96 26-1032): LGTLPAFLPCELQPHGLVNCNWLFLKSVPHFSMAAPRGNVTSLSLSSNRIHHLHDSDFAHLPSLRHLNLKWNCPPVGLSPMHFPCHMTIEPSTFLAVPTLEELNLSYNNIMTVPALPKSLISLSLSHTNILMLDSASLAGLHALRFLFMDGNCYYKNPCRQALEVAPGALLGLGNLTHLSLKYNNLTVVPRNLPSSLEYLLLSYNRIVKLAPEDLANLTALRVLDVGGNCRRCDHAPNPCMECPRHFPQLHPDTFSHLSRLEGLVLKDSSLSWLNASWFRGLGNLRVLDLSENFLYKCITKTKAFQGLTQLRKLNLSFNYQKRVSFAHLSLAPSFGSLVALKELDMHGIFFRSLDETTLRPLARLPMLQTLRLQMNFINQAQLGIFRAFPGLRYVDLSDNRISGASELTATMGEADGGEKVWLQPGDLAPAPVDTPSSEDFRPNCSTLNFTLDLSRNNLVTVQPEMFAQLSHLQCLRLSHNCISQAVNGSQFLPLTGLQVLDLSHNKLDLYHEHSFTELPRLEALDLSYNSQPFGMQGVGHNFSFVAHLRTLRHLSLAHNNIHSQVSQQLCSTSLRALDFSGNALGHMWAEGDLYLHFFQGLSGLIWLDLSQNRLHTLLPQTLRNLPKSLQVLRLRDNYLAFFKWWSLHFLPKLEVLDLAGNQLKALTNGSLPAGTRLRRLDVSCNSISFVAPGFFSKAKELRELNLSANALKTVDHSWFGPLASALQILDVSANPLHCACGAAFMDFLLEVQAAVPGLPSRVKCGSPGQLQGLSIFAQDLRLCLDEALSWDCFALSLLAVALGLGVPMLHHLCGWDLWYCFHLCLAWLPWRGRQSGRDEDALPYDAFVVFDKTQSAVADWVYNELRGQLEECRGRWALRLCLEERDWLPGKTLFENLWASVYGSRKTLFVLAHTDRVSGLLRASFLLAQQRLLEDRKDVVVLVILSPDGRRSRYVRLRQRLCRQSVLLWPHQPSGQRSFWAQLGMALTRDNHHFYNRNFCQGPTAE
The test is described as follows: TLR9 inhibition reporter assay (HEK-Blue SEAP reporter, ODN2006 stimulation). Particulars: HEK-Blue cells overexpressing human TLR9, SEAP reporter, ODN2006 5 nM, 22 hour incubation. In a few lines: as §1

Where only a bound is given, the exact number is not on record here.

For the compound `COc1cc(-c2[nH]c3ccc(C4CCN(CC(C)(C)O)CC4)cc3c2C(C)C)c(C)n(C)c1=O` [Example 318, 5-(5-(1-(2-hydroxy-2-methylpropyl)piperidin-4-yl)-3-isopropyl-1H-indol-2-yl)-3-methoxy-1,6-dimethylpyridin-2(1H)-one], the IC50 on human TLR7 came to 361 nM; at human TLR8, 22.3 nM; on human TLR9, 3.43 µM.

For `Cc1cc(-c2[nH]c3ccc(C4CCN(CC(=O)N(C)C)CC4)cc3c2C(C)C)cn(CCO)c1=O` [Example 167, 2-(4-(2-(1-(2-hydroxyethyl)-5-methyl-6-oxo-1,6-dihydropyridin-3-yl)-3-isopropyl-1H-indol-5-yl)piperidin-1-yl)-N,N-dimethylacetamide], the results for the IC50 against human TLR7, on human TLR8 and against human TLR9 were 61.7 nM, 15.6 nM and 49.3 µM, respectively.

For `Cc1cc(-c2[nH]c3ccc(C4CCN(C)CC4)cc3c2C(C)C)nn(C)c1=O` [Example 191, 6-(3-isopropyl-5-(1-methylpiperidin-4-yl)-1H-indol-2-yl)-2,4-dimethylpyridazin-3(2H)-one], the IC50 against human TLR7 was 6.9 nM; on human TLR8, 21.5 nM; against human TLR9 it was 8.84 µM.

Take `CCCN1CCC(c2ccc3[nH]c(-c4cc(-c5ccc(F)nc5)c(=O)n(C)c4)c(C(C)C)c3c2)CC1` [Example 341, 6′-fluoro-5-(3-isopropyl-5-(1-propylpiperidin-4-yl)-1H-indol-2-yl)-1-methyl-[3,3′-bipyridin]-2(1H)-one]: the IC50 amounted to 16.2 nM on human TLR7, 4.3 nM against human TLR8 and 0.714 µM on human TLR9.

As to `Cc1nc(-c2[nH]c3ccc(C4CCN(C5COC5)CC4)cc3c2C(C)C)cn(C)c1=O` [Example 186, 5-(3-isopropyl-5-(1-(oxetan-3-yl)piperidin-4-yl)-1H-indol-2-yl)-1,3-dimethylpyrazin-2(1H)-one], the IC50 is 112 nM against human TLR7, 75.5 nM on human TLR8 and 6.73 µM against human TLR9.

`CCCN1CCC(c2ccc3[nH]c(-c4cn(C)c(=O)c(-c5cnn(C)c5)c4C)c(C(C)C)c3c2)CC1` [Example 333, 5-(3-isopropyl-5-(1-propylpiperidin-4-yl)-1H-indol-2-yl)-1,4-dimethyl-3-(1-methyl-1H-pyrazol-4-yl)pyridin-2(1H)-one]: the IC50 on human TLR7 amounted to 92.2 nM; on human TLR8, 11.1 nM; on human TLR9, 3.01 µM.

With `CNCCN1CCC(c2ccc3[nH]c(-c4ccc(=O)n(C)c4)c(C(C)C)c3c2)CC1` [Example 172, 5-(3-isopropyl-5-(1-(2-(methylamino)ethyl)piperidin-4-yl)-1H-indol-2-yl)-1-methylpyridin-2(1H)-one], the IC50 at human TLR7 was determined as 29.9 nM; at human TLR8 it was 6.9 nM; against human TLR9, 0.151 µM.

Turning to `Cc1cc(-c2[nH]c3ccc(C4CCN(C5COC5)CC4)cc3c2C(C)C)c(C)n(C)c1=O` [Example 211, 5-(3-isopropyl-5-(1-(oxetan-3-yl)piperidin-4-yl)-1H-indol-2-yl)-1,3,6-trimethylpyridin-2(1H)-one], the 50% inhibitory concentration (IC50) was 34.6 nM at human TLR7, 17.1 nM against human TLR8 and not below 50 µM against human TLR9.

Take `Cc1c(-c2[nH]c3ccc(C4CCN(CC(O)CO)CC4)cc3c2C(C)C)cn(C)c(=O)c1Cl` (stereo not drawn) [Example 253, 3-chloro-5-(5-(1-(2,3-dihydroxypropyl)piperidin-4-yl)-3-isopropyl-1H-indol-2-yl)-1,4-dimethylpyridin-2(1H)-one]: the 50% inhibitory concentration (IC50) against human TLR7 is 6.1 nM; on human TLR8, 5.2 nM; at human TLR9 it was 1.24 µM.

For the compound `Cc1cc(-c2[nH]c3ccc(C4CCN(CC(O)C(C)(C)C)CC4)cc3c2C(C)C)cn(C)c1=O` (stereo not drawn) [Example 325, 5-(5-(1-(2-hydroxy-3,3-dimethylbutyl)piperidin-4-yl)-3-isopropyl-1H-indol-2-yl)-1,3-dimethylpyridin-2(1H)-one], the IC50 amounted to 8.7 nM against human TLR7, 4.3 nM on human TLR8 and 3 µM at human TLR9.

Consider `COCCCN1CCC(c2ccc3[nH]c(-c4cn(C)c(=O)c(Cl)c4C)c(C(C)C)c3c2)CC1` [Example 99, 3-chloro-5-(3-isopropyl-5-(1-(3-methoxypropyl)piperidin-4-yl)-1H-indol-2-yl)-1,4-dimethylpyridin-2(1H)-one], for which the values for the IC50 at human TLR7, against human TLR8 and against human TLR9 were 7.1 nM, 10.3 nM and 4.98 µM, respectively.

As for `COc1cc(-c2[nH]c3ccc(C4CCN(C5CCOCC5)CC4)cc3c2C(C)C)cn(C)c1=O` [Example 201, 5-(3-isopropyl-5-(1-(tetrahydro-2H-pyran-4-yl)piperidin-4-yl)-1H-indol-2-yl)-3-methoxy-1-methylpyridin-2(1H)-one], the IC50 worked out at 4 nM on human TLR7, 4.4 nM at human TLR8 and 0.959 µM on human TLR9.
